One experiment concerns Aspergillus niger. Put plainly: Compound was tested for an antifungal whole cell assay to obtain minimum inhibitory concentration against Aspergillus niger 48238. The format is functional.
The next experiment concerns Cryptococcus neoformans. Put plainly: Compound was tested for an antifungal whole cell assay to obtain minimum inhibitory concentration against Cryptococcus neoformans 2867E. The format is functional.
A further experiment has as its system Candida albicans. Put plainly: Compound was tested for an antifungal whole cell assay to obtain minimum inhibitory concentration against Candida albicans C316. The format is functional.
The next experiment concerns the target T1, Squalene synthase (Rattus norvegicus, UniProt Q02769).
T1 sequence (Q02769 whole entry): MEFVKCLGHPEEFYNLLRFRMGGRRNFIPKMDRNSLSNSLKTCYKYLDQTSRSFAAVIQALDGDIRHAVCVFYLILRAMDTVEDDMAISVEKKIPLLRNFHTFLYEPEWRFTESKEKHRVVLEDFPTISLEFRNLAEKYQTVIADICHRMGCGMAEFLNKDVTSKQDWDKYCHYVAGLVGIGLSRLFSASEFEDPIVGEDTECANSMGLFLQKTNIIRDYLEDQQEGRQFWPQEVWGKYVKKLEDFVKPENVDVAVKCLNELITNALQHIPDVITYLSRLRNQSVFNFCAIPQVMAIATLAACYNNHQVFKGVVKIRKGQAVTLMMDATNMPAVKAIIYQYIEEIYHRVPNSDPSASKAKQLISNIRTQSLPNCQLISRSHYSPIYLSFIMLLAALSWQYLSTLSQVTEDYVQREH
The experiment is described as follows: Inhibition of juvenile male rat liver microsomal squalene synthase.

Experiment [1] in a line: Compound was tested on serum cholesterol levels in marmosets after 7 days at 1(mg/kg/day) intravenous administration in 6 animals. In kind it is functional, Callitrichinae.
Experiment [2] can be described thus: Compound was tested on serum cholesterol levels in marmosets after 2 days at intravenous 1 (mg/kg) dose in 6 animals. The format is functional, Callitrichinae.
Experiment [3] can be described thus: Compound was tested on serum cholesterol levels in marmosets after 3 days at intravenous 0.33 (mg/kg) dose in 6 animals. The format is functional, Callitrichinae.
Experiment [4] in a line: Compound was tested on serum cholesterol levels in marmosets after 7 days at 1(mg/kg/day) intravenous administration in 8 animals. In kind it is functional, Callitrichinae.
Experiment [5] is described as follows: (§1) Compound was tested on serum cholesterol levels in marmosets after 7 days at intravenous 0.11 (mg/kg) dose in 6 animals. In kind it is functional, Callitrichinae.
Another experiment has as its system Rattus norvegicus. Put plainly: Tested for inhibition of cholesterol biosynthesis by intravenous administration to rats. The format is functional.
Experiment [6] can be described thus: as §1. In kind it is functional, Callitrichinae. The source holds these as a separate data set.
Setting [7] is: Aspergillus niger, read-out: MIC.
[8] abbreviates: Cryptococcus neoformans, read-out: MIC.
[9] abbreviates: Candida albicans, read-out: MIC.

As usually defined, the MIC is the smallest concentration in the dilution series that meets the test's criterion for growth inhibition. For orientation: IC50 means the concentration needed to halve the response being measured. A high value points to a need for much substance. Broadly, the ED50 is the dose at which the effect has come halfway, by size or by number of responders. Read a low ED50 as an effect at a small dose.

In brackets after ≈: the same amount, converted by molar mass. Several values for one entry are separate records, joined by “and”; a condition that tells them apart may be missing. Equal entries are not always repeated. Some results are limits rather than exact numbers.

For `CC[C@H](C)C[C@H](C)CCC(=O)O[C@@H]1[C@@H](O)[C@@]2(CCC(C)[C@H](O)[C@@H](C)Cc3ccccc3)O[C@H](C(=O)O)[C@@](O)(C(=O)O)[C@]1(C(=O)O)O2` (stereo not given in full), the values for the MIC in the experiment with Aspergillus niger (setting [7]), in the experiment on Cryptococcus neoformans (setting [8]) and with Candida albicans (setting [9]) were 31 mg/L (≈ 47.5 µM), 8 mg/L (≈ 12.3 µM) and 125 mg/L (≈ 192 µM), respectively.
In the same order, the values of `CC[C@H](C)C[C@H](C)CCC(=O)O[C@@H]1[C@@H](O)[C@@]2(CCC(C)C[C@@H](C)Cc3ccccc3)O[C@H](C(=O)O)[C@@](O)(C(=O)O)[C@]1(C(=O)O)O2` (stereo not given in full) are 16 mg/L (≈ 25.1 µM), 1 mg/L (≈ 1.57 µM) and 31 mg/L (≈ 48.7 µM).
Consider `CC[C@H](C)C[C@H](C)CCC(=O)O[C@@H]1[C@@H](O)[C@@]2(CCC(C)[C@H](OC(C)=O)[C@@H](C)Cc3ccccc3)O[C@H](C(=O)O)[C@@](O)(C(=O)O)[C@]1(C(=O)O)O2` (stereo in doubt; 2f), for which the MIC came to 125 mg/L (≈ 180 µM) in the experiment on Aspergillus niger, 4 mg/L (≈ 5.76 µM) in the experiment on Cryptococcus neoformans and 125 mg/L (≈ 180 µM) against Candida albicans. The compound also had an IC50 at Squalene synthase of 0.165 µM.
`C=C(CC[C@]12O[C@H](C(=O)O)[C@@](O)(C(=O)O)[C@](C(=O)O)(O1)[C@H](OC(=O)/C=C/[C@@H](C)C[C@@H](C)CC)[C@H]2O)[C@H](O)[C@@H](C)Cc1ccccc1`: the MIC with Aspergillus niger (setting [7]) was found to be 16 mg/L (≈ 24.7 µM); with Cryptococcus neoformans (setting [8]), 1 mg/L (≈ 1.54 µM); in the experiment on Candida albicans (setting [9]), 125 mg/L (≈ 193 µM). The Cholesterol reduction in experiment [1] was determined as 59%.
As for `C/C(=C\[C@@H](C)Cc1ccccc1)CC[C@]12O[C@H](C(=O)O)[C@@](O)(C(=O)O)[C@](C(=O)O)(O1)[C@H](O)[C@H]2O`, the IC50 against Squalene synthase is 0.2 µM.
As to `C=C(CC[C@]12O[C@H](C(=O)O)[C@@](O)(C(=O)O)[C@](C(=O)O)(O1)[C@H](OC(=O)CC[C@@H](C)C[C@@H](C)CC)[C@H]2O)[C@H](OC(C)=O)[C@@H](C)Cc1ccccc1`, the MIC was determined as 1 mg/L (≈ 1.44 µM) in the experiment with Aspergillus niger (setting [7]), 0.1 mg/L (≈ 0.144 µM) with Cryptococcus neoformans (setting [8]) and 8 mg/L (≈ 11.5 µM) with Candida albicans (setting [9]). Moreover, the Cholesterol reduction in experiment [1] worked out at 72%. At Squalene synthase, half-maximal inhibition (IC50) required 0.013 µM.
In the case of `C=C(CC[C@]12O[C@H](C(=O)O)[C@@](O)(C(=O)O)[C@](C(=O)O)(O1)[C@H](OC(=O)/C=C/[C@@H](C)C[C@@H](C)CC)[C@H]2O)[C@H](OC(C)=O)[C@@H](C)Cc1ccccc1`, the MIC in the experiment with Aspergillus niger (setting [7]) is 16 mg/L (≈ 23.2 µM); in the experiment on Cryptococcus neoformans (setting [8]), 0.5 mg/L (≈ 0.724 µM); in the experiment with Candida albicans (setting [9]), 8 mg/L (≈ 11.6 µM). The Cholesterol reduction in experiment [2] was 47% and 53% and 60%; in experiment [3], 53% and 63% and 62%; in [4] it was 86%; in experiment [5], 37% and 41%; in [6], 39%. In the experiment on Rattus norvegicus, this compound came in with an ED50 of 0.1 mg/kg.
As for `CC[C@H](C)C[C@H](C)CCC(=O)O[C@@H]1[C@@H](O)[C@@]2(C/C=C(\C)[C@H](OC(C)=O)[C@@H](C)Cc3ccccc3)O[C@H](C(=O)O)[C@@](O)(C(=O)O)[C@]1(C(=O)O)O2`, the values for the MIC with Aspergillus niger (setting [7]), with Cryptococcus neoformans (setting [8]) and with Candida albicans (setting [9]) were 31 mg/L (≈ 44.7 µM), 8 mg/L (≈ 11.5 µM) and 125 mg/L (≈ 180 µM), respectively. On Squalene synthase, the IC50 was found to be 0.022 µM.
For the compound `C=C(CC[C@]12O[C@H](C(=O)O)[C@@](O)(C(=O)O)[C@](C(=O)O)(O1)[C@H](O)[C@H]2O)[C@H](O)[C@@H](C)Cc1ccccc1`, the MIC in the experiment with Aspergillus niger (setting [7]), in the experiment on Cryptococcus neoformans (setting [8]) and with Candida albicans (setting [9]) was 62 mg/L (≈ 125 µM) in each case. The compound further gave an IC50 at Squalene synthase of 0.252 µM.
As for `CC[C@H](C)C[C@H](C)CCC(=O)O[C@@H]1[C@@H](O)[C@@]2(CCC(C)[C@H](OC(C)=O)[C@@H](C)Cc3ccccc3)O[C@H](C(=O)O)[C@@](O)(C(=O)O)[C@]1(C(=O)O)O2` (stereo in doubt; 2d), the MIC against Aspergillus niger is 8 mg/L (≈ 11.5 µM); against Cryptococcus neoformans it was 0.5 mg/L (≈ 0.72 µM); in the experiment with Candida albicans, 16 mg/L (≈ 23 µM). On Squalene synthase, this compound yielded an IC50 of 0.003 µM.
For the compound `CC(=O)O[C@@H](C(C)CC[C@]12O[C@H](C(=O)O)[C@@](O)(C(=O)O)[C@](C(=O)O)(O1)[C@H](O)[C@H]2O)[C@@H](C)Cc1ccccc1` (stereo not given in full), the MIC in the experiment on Aspergillus niger (setting [7]), in the experiment with Cryptococcus neoformans (setting [8]) and in the experiment with Candida albicans (setting [9]) was 125 mg/L (≈ 231 µM) throughout.
Take `CC[C@H](C)C[C@H](C)/C=C/C(=O)O[C@@H]1[C@@H](O)[C@@]2(CC/C(C)=C/[C@@H](C)Cc3ccccc3)O[C@H](C(=O)O)[C@@](O)(C(=O)O)[C@]1(C(=O)O)O2`: the MIC worked out at 16 mg/L (≈ 25.3 µM) with Aspergillus niger (setting [7]), 4 mg/L (≈ 6.32 µM) with Cryptococcus neoformans (setting [8]) and 31 mg/L (≈ 49 µM) in the experiment on Candida albicans (setting [9]). Half-maximal inhibition at Squalene synthase (IC50) required 0.032 µM.
Consider `C=C(CC[C@]12O[C@H](C(=O)O)[C@@](O)(C(=O)O)[C@](C(=O)O)(O1)[C@H](O)[C@H]2O)[C@H](OC(C)=O)[C@@H](C)Cc1ccccc1`, for which the MIC in the experiment on Aspergillus niger (setting [7]), in the experiment on Cryptococcus neoformans (setting [8]) and in the experiment with Candida albicans (setting [9]) was > 125 mg/L in each case. In addition, the Cholesterol reduction in experiment [1] is listed as 56%.
For `CC[C@H](C)C[C@H](C)/C=C/C(=O)O[C@@H]1[C@@H](O)[C@@]2(C/C=C(\C)CC(C)Cc3ccccc3)O[C@H](C(=O)O)[C@@](O)(C(=O)O)[C@]1(C(=O)O)O2` (single isomer, unassigned), the MIC in the experiment on Aspergillus niger (setting [7]) came to 31 mg/L (≈ 49 µM); in the experiment with Cryptococcus neoformans (setting [8]), 2 mg/L (≈ 3.16 µM); in the experiment on Candida albicans (setting [9]), 31 mg/L (≈ 49 µM). On Squalene synthase, this compound gave an IC50 of 0.065 µM.
Take `CC(CC[C@]12O[C@H](C(=O)O)[C@@](O)(C(=O)O)[C@](C(=O)O)(O1)[C@H](O)[C@H]2O)C[C@@H](C)Cc1ccccc1` (stereo not given in full): the MIC in the experiment with Aspergillus niger (setting [7]), in the experiment with Cryptococcus neoformans (setting [8]) and in the experiment with Candida albicans (setting [9]) was 125 mg/L (≈ 259 µM) each time. For the same compound, the IC50 at Squalene synthase came out at 0.415 µM.

The values above are taken from ChEMBL document CHEMBL1127350, “The squalestatins: novel inhibitors of squalene synthase. Enzyme inhibitory activities and in vivo evaluation of C1-modified analogues” (J Med Chem, 1994).
